Assay results as given in patent publication US11040981B2, “Pyrrolotriazine compounds and methods of inhibiting TAM kinases” (Syros Pharmaceuticals, Inc., priority 2017, dated 2021).

How the values were obtained:
[1] = molecular target: T1, AXL (Homo sapiens, UniProt P30530); assay: TR-FRET kinase activity assay, AXL; type: biochemical; settings: ATP at Km, 60 minutes
T1 sequence (P30530 26-894): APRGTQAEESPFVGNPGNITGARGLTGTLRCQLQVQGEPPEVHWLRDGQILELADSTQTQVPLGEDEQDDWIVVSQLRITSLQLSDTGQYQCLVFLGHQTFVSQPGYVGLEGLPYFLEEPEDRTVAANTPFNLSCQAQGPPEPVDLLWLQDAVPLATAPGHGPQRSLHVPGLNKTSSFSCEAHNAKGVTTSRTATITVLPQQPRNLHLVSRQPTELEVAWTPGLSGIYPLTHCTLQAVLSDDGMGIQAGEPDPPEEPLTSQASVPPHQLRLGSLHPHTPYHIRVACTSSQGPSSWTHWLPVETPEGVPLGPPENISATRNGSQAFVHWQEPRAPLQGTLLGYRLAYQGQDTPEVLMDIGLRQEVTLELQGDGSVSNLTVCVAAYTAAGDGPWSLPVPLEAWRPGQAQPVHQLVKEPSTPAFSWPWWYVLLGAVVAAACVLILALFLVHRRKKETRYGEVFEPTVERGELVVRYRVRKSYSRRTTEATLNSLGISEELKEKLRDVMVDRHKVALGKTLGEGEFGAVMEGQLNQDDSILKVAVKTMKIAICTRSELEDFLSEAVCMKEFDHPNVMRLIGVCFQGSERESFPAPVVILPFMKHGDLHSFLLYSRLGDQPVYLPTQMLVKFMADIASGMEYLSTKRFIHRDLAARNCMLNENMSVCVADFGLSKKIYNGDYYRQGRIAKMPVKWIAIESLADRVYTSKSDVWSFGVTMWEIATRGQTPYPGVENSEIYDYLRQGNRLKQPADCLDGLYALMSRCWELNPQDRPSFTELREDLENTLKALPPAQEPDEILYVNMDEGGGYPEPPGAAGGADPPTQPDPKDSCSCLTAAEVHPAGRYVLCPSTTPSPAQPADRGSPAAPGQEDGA
Method in brief: (§1)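 IC50 reflects the drop in TR-FRET between Eu anti-phosphotyrosine antibody and labelled peptide after a 60-minute room-temperature reaction. Buffer was 50 mM HEPES pH 7.5 with 10 mM MgCl2, 1 mM EGTA, 0.01% Brij 35 and 1 mM DTT, with ATP at Km per enzyme and EDTA quench.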

[2] = molecular target: T2, FLT3 (Homo sapiens, UniProt P36888); assay: TR-FRET kinase activity assay, FLT3; type: biochemical; settings: ATP at Km, 60 minutes
T2 sequence (P36888 27-993): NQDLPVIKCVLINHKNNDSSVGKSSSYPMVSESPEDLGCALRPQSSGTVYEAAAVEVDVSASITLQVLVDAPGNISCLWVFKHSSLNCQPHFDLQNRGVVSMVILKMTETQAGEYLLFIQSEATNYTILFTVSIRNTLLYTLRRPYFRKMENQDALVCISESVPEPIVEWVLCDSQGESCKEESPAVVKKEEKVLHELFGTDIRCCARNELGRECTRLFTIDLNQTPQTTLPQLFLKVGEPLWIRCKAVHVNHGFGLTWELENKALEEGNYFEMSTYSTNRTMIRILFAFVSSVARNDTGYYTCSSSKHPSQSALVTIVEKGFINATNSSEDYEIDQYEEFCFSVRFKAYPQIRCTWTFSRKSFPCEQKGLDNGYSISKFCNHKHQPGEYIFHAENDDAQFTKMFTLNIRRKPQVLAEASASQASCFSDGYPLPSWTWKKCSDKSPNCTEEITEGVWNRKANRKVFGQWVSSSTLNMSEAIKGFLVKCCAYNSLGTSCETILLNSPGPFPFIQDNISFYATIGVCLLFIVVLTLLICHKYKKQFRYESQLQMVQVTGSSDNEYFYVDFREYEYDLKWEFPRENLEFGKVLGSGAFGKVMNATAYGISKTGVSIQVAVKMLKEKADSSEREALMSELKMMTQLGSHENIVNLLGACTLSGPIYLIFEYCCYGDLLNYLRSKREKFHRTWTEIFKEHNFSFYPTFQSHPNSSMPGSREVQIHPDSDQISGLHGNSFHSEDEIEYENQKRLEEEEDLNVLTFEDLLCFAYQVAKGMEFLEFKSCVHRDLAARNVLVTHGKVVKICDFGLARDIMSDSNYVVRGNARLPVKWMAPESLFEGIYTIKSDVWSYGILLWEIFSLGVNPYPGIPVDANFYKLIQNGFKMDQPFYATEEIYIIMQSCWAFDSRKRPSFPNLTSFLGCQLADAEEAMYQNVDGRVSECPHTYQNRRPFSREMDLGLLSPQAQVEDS
Method in brief: as §1

Compound | IC50 [1] [nM] | IC50 [2] [nM]
COC[C@H](C)Nc1ncc2c(-c3ccnc(C)c3)cc(C3CCC4(CC3)NC(=O)NC4=O)n2n1 (mixture of isomers) [Compound 325, (S)-8-(2-((1-methoxypropan-2-yl)amino)-5-(2-methylpyridin-4-yl)pyrrolo[2,1-f][1,2,4]triazin-7-yl)-1,3-diazaspiro[4.5]decane-2,4-dione] | ≤ 100 | 1000 to 10000
COC[C@H](C)Nc1ncc2c(-c3cnn(C4CN(CCC(F)(F)F)C4)c3)cc([C@H]3CC[C@H](O)CC3)n2n1 [Compound 291] | ≤ 100 | 100 to 1000
CCCCC[C@H](C)Nc1ncc2c(C3=CC[C@@H](C(=O)N4CCOCC4)CC3)cc([C@H]3CC[C@H](O)CC3)n2n1 [Compound 113] | ≤ 100 | 100 to 1000
COC[C@H](C)Nc1ncc2c(-c3cnn(C(C)(C)C(=O)N4C[C@H](C)O[C@@H](C)C4)c3)cc([C@H]3CC[C@H](O)CC3)n2n1 [Compound 328] | ≤ 100 | 1000 to 10000
COC[C@H](C)Nc1ncc2c(-c3ccnc(OC4CCCN(C)C4)c3)cc([C@H]3CC[C@H](O)CC3)n2n1 (stereo partly shown) [Compound 341] | ≤ 100 | 100 to 1000
COC[C@H](C)Nc1ncc2c(-c3ccnc(NC(C)C)c3)cc([C@H]3CC[C@H](O)CC3)n2n1 [Compound 337] | ≤ 100 | 100 to 1000
C[C@@H](CC(F)(F)F)Nc1ncc2c(-c3ccc(S(C)(=O)=O)nc3)cc([C@H]3CC[C@H](O)CC3)n2n1 [Compound 297] | ≤ 100 | ≤ 100
COC[C@H](C)Nc1ncc2c(-c3ccc(S(C)(=O)=O)nc3)cc([C@H]3CC[C@H](O)CC3)n2n1 [Compound 279] | ≤ 100 | 100 to 1000
COC[C@H](C)Nc1ncc2c(-c3cnn(Cc4ccnnc4)c3)cc([C@H]3CC[C@H](O)CC3)n2n1 [Compound 281] | ≤ 100 | ≤ 100
COC[C@H](C)Nc1ncc2c(-c3cnn(C(C)(C)C(=O)N4CCC4)c3)cc([C@H]3CC[C@H](O)CC3)n2n1 [Compound 283] | ≤ 100 | 1000 to 10000
CCCCC[C@H](C)Nc1ncc2c(N3CCC(C(=O)O)CC3)cc([C@H]3CC[C@H](O)CC3)n2n1 [Compound 117] | 100 to 1000 | 1000 to 10000
COC[C@H](C)Nc1ncc2c(-c3ccc(CN4CCOCC4)cc3)cc([C@H]3CC[C@H](NC(C)=O)CC3)n2n1 [Compound 300, N-((trans)-4-(2-(((S)-1-methoxypropan-2-yl)amino)-5-(4-(morpholinomethyl)phenyl)pyrrolo[2,1-f][1,2,4]triazin-7-yl)cyclohexyl)acetamide] | ≤ 100 | 100 to 1000
COC[C@H](C)Nc1ncc2c(-c3ccnc(N4CCN(S(C)(=O)=O)CC4)c3)cc([C@H]3CC[C@H](O)CC3)n2n1 [Compound 338] | ≤ 100 | 100 to 1000
Cc1cc(-c2cc([C@H]3CC[C@H](O)CC3)n3nc(N[C@@H](C)COC(F)F)ncc23)ccn1 [Compound 313] | ≤ 100 | 100 to 1000
COC[C@H](C)Nc1ncc2c(-c3cnn(C4CN(C(C)=O)C4)c3)cc([C@H]3CC[C@H](O)CC3)n2n1 [Compound 286] | ≤ 100 | ≤ 100
COC[C@H](C)Nc1ncc2c(-c3cnn(C[C@H]4CCC(=O)N4)c3)cc([C@H]3CC[C@H](O)CC3)n2n1 [Compound 324] | ≤ 100 | 100 to 1000
COC[C@H](C)Nc1ncc2c(-c3cnn(C4CC(S(C)(=O)=O)C4)c3)cc([C@H]3CC[C@H](O)CC3)n2n1 (stereo partly shown) [Compound 287] | ≤ 100 | ≤ 100
CNC(=O)C(C)(C)n1cc(-c2cc([C@H]3CC[C@H](O)CC3)n3nc(N[C@@H](C)COC)ncc23)cn1 [Compound 295] | ≤ 100 | 1000 to 10000

Compound | IC50 [1] [nM] | IC50 [2] [nM]
COC[C@H](C)Nc1ncc2c(-c3cnn(C(C)(C)C(=O)C4C[C@H]5COC[C@H]5C4)c3)cc([C@H]3CC[C@H](O)CC3)n2n1 (stereo partly shown) [Compound 319] | ≤ 100 | 1000 to 10000
COCCOc1cc(-c2cc([C@H]3CC[C@H](O)CC3)n3nc(N[C@@H](C)COC)ncc23)ccn1 [Compound 345] | ≤ 100 | 1000 to 10000
CNC(=O)c1cncc(-c2cc([C@H]3CC[C@H](O)CC3)n3nc(N[C@@H](C)CC(F)(F)F)ncc23)c1 [Compound 304] | ≤ 100 | 1000 to 10000
COC[C@H](C)Nc1ncc2c(-c3cnn(C(C)(C)C(=O)O)c3)cc([C@H]3CC[C@H](O)CC3)n2n1 [Compound 284] | 100 to 1000 | 1000 to 10000
C[C@@H](CC(F)(F)F)Nc1ncc2c(-c3cnn(CCS(C)(=O)=O)c3)cc([C@H]3CC[C@H](O)CC3)n2n1 [Compound 288] | ≤ 100 | ≤ 100
COC[C@H](C)Nc1ncc2c(-c3cnn(Cc4cc(C)nn4C)c3)cc([C@H]3CC[C@H](O)CC3)n2n1 [Compound 333] | ≤ 100 | 100 to 1000
COC[C@H](C)Nc1ncc2c(-c3cnn(Cc4nc(C)no4)c3)cc([C@H]3CC[C@H](O)CC3)n2n1 [Compound 292] | ≤ 100 | 100 to 1000
C[C@@H](CC(F)(F)F)Nc1ncc2c(-c3cnn([C@H]4CCOC4)c3)cc([C@H]3CC[C@H](O)CC3)n2n1 [Compound 290] | ≤ 100 | ≤ 100
COC[C@H](C)Nc1ncc2c(-c3cnn(Cc4nnc(C)o4)c3)cc([C@H]3CC[C@H](O)CC3)n2n1 [Compound 277] | ≤ 100 | ≤ 100
COC[C@H](C)Nc1ncc2c(-c3cnn(C(C)(C)C(=O)N4C[C@H]5CC[C@@H](C4)O5)c3)cc([C@H]3CC[C@H](O)CC3)n2n1 [Compound 327] | ≤ 100 | 1000 to 10000
COC[C@H](C)Nc1ncc2c(-c3cnn(Cc4ccc(S(C)(=O)=O)cc4)c3)cc([C@H]3CC[C@H](O)CC3)n2n1 [Compound 314] | ≤ 100 | ≤ 100
COC[C@H](C)Nc1ncc2c(-c3cnn(Cc4cn[nH]c4)c3)cc([C@H]3CC[C@H](O)CC3)n2n1 [Compound 332] | ≤ 100 | 100 to 1000
COC[C@H](C)Nc1ncc2c(-c3cnn(Cc4cnc(C)cn4)c3)cc([C@H]3CC[C@H](O)CC3)n2n1 [Compound 306] | ≤ 100 | 100 to 1000
COC[C@H](C)Nc1ncc2c(-c3cnn(C(C)(C)C(=O)N4CC5(COC5)C4)c3)cc([C@H]3CC[C@H](O)CC3)n2n1 [Compound 326] | ≤ 100 | 1000 to 10000
COC[C@H](C)Nc1ncc2c(-c3cnn(C(C)(C)C(=O)N4CCS(=O)(=O)CC4)c3)cc([C@H]3CC[C@H](O)CC3)n2n1 [Compound 331, 1-(1,1-dioxidothiomorpholino)-2-(4-(7-((trans)-4-hydroxycyclohexyl)-2-(((S)-1-methoxypropan-2-yl)amino)pyrrolo[2,1-f][1,2,4]triazin-5-yl)-1H-pyrazol-1-yl)-2-methylpropan-1-one] | ≤ 100 | 100 to 1000
CC[C@H](C)Nc1ncc2c(-c3ccc(CN4CCN(C)CC4)cc3)cc([C@H]3CC[C@H](O)CC3)n2n1 [Compound 118] | ≤ 100 | ≤ 100
COC[C@H](C)Nc1ncc2c(-c3ccnc(OC4CCN(C)CC4)c3)cc([C@H]3CC[C@H](O)CC3)n2n1 [Compound 342] | ≤ 100 | 100 to 1000
